Consider three compounds from article PMC2974784 (Pharmacological research : the official journal of the …, 2010).

Type in all cases: cell-based
In assay [1] the target is T1, P2Y1 receptor (Rattus norvegicus, UniProt P49651).
Assay [2] has as its target T1, P2Y1 receptor. Nature of the assay: agonist-induced intracellular calcium mobilization in RBL-2H3 cells.
Assay [3] addresses T1, P2Y1 receptor. The source holds these as a separate data set.
The next assay addresses T2, P2Y13 receptor (Rattus norvegicus, UniProt Q6GUG4).
T2 sequence (Q6GUG4 1-336): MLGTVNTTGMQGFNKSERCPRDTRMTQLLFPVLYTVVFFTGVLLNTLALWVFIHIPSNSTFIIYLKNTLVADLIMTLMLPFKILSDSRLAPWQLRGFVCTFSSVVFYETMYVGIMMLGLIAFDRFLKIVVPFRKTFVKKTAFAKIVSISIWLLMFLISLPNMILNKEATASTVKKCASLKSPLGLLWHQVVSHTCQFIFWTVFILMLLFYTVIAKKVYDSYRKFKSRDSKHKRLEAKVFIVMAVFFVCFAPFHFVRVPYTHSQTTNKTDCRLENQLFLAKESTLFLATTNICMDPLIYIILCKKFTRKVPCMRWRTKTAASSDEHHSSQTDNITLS

A word on the EC50: it is the concentration giving half of the maximal effect.

Counter-ions that a name gives are not always drawn. Like-named read-outs stand apart in the source and are kept apart here.

T1 sequence (P49651 whole entry): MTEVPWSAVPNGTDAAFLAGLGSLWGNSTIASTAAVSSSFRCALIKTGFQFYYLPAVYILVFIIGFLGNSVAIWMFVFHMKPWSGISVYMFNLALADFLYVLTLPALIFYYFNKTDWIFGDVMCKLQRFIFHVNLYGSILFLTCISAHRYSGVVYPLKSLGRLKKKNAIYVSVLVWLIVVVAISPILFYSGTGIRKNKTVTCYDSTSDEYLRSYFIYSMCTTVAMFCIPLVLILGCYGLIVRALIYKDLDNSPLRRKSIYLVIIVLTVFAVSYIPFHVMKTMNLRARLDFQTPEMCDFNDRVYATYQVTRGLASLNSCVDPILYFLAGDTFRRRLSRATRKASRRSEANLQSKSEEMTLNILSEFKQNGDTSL

Regarding `CSc1nc(N)c2ncn([C@H]3[C@H](O)[C@H](O)[C@]4(COP(=O)(O)OP(=O)(O)O)C[C@H]34)c2n1` [MRS2365, [[(1R,2R,3S,4R,5S)-4-[6-amino-2-(methylthio)-9H-purin-9-yl]-2,3-dihydroxybicyclo[3.1.0]hex-1-yl]methyl]diphosphoric acid mono ester trisodium salt], at P2Y1 receptor [1], the response was half-maximal at 4.5 ± 0.8 nM (EC50).

With `CSc1nc(N)c2ncn([C@@H]3O[C@H](COP(=O)(O)OP(=O)(O)O)[C@@H](O)[C@H]3O)c2n1` [2-MeSADP], on P2Y1 receptor [2], the EC50 was 37.8 ± 11.3 nM.

Turning to `Nc1ncnc2c1ncn2[C@@H]1O[C@H](COP(=O)(O)OP(=O)(O)O)[C@@H](O)[C@H]1O` [ADP], the figures for the half-maximal effective concentration (EC50) on P2Y1 receptor [3] and on P2Y13 receptor were 278 ± 42 nM and 4700 ± 800 nM, respectively.
